{
  "source": "patent US9995734B2",
  "about": "“Human T cell line assay for evaluating the immunologic identity of glatiramer acetate preparations” (Mylan Inc., priority 2013, dated 2018)",
  "key": {"[1]": {"test_system": "Donor 3 GMA Responsive T Cells", "assay": "Cytokine multiplex assay, Donor 3 GMA responsive T cells", "format": "cell-based, human", "conditions": "culture medium", "procedure": "(§1) The concentration of multiple cytokines was measured simultaneously using FlowCytoMix™ kits (eBioscience, San Diego Calif.). These are fluorescent bead based assays consisting of beads conjugated to anti cytokine antibodies. Beads specific for each cytokine are distinguished by size and fluorescence at 670 run. Cytokine bound to each bead is detected using a phycoerythrin conjugated antibody so that the fluorescence at 585 nm reflects the concentration of cytokine in the sample. Two kits were utilized which measured different cytokine panels. The TH1/TH2 kit measures IFN-γ, IL-1β, IL-2, IL-4, IL-5, IL-6, IL-8, IL-10, IL-12p70, TNF-α (TNF) and TNF-β (LT). The TH1/TH2/TH9/TH17/TH22 kit measures […], IL-1β, IL-2, IL-4, IL-5, IL-6, IL-9, IL-10, IL-12p70, IL-13, IL-17, IL-22, and TNF-α (TNF). Both kits were used following the manufacturer's instructions."}, "Donor 1 COP T-Cell Lines": {"test_system": "Donor 1 COP T-Cell Lines", "assay": "Multiplex bead cytokine assay (FlowCytoMix), Donor 1 COP T-cell lines", "format": "cell-based, human", "procedure": "Culture medium was removed from cultures prepared as for proliferation assay and utilized to measure cytokine production. In most cases culture medium was collected 18-24 hours after mixing T-cells, APC, and stimulating antigen. Cytokine production was measured by ELISA or bead assay. For measuring cytokine production, 100-150 μL culture medium (100 μL if culture was to be continued, otherwise 150 μL) was removed from each well. In some cases, the culture was continued 48 hours, for a total of 72 hours of culture, and the proliferative response measured.\nas §1\nIL-12p70, IFN-γ, IL-2, IL-10, IL-8, IL-6, IL-5, IL-4, IL-1β, TNF-α (TNF), and TNF-β (LT) secretion were measured in response to stimulation with 1, 3, or 10 μg/mL GMA, or 1, 3, or 10 μg/mL COP, as well as a no-antigen control and an MBP control, in the presence of autologous EBV-transformed B-LCL."}, "[2]": {"conditions": "222-1C5, 1 μg/mL, 24 hours after Day 56 restimulation"}, "[3]": {"conditions": "222-1C5, 3 μg/mL, 24 hours after Day 56 restimulation"}, "[4]": {"conditions": "222-1C5, 10 μg/mL, 24 hours after Day 56 restimulation"}, "[5]": {"conditions": "222-1C5, 10 μg/mL, Day 34 supernatants"}, "[6]": {"conditions": "222-1H12, 10 μg/mL, Day 34 supernatants"}, "[7]": {"conditions": "222-2B8, 1 μg/mL, 24 hours after Day 56 restimulation"}},
  "data": [
    {"substance": "glatiramer acetate [GMA]", "values": [
      {"measurement": "IFN-γ", "setting": "[1]; T-cell line 165-B5G", "value": 201, "unit": "pg/mL"},
      {"measurement": "IL-4", "setting": "[1]; T-cell line 165-B5G", "value": 47, "unit": "pg/mL"},
      {"measurement": "IL-5", "setting": "[1]; T-cell line 165-B5G", "value": 399, "unit": "pg/mL"},
      {"measurement": "IL-13", "setting": "[1]; T-cell line 165-B5G", "value": 2930, "unit": "pg/mL"},
      {"measurement": "IL-22", "setting": "[1]; T-cell line 165-B5G", "value": 248, "unit": "pg/mL"},
      {"measurement": "IFN-γ", "setting": "[1]; T-cell line 165-D8G", "value": 121, "unit": "pg/mL"},
      {"measurement": "IL-4", "setting": "[1]; T-cell line 165-D8G", "value": 12, "unit": "pg/mL"},
      {"measurement": "IL-5", "setting": "[1]; T-cell line 165-D8G", "value": 309, "unit": "pg/mL"},
      {"measurement": "IL-13", "setting": "[1]; T-cell line 165-D8G", "value": 3326, "unit": "pg/mL"},
      {"measurement": "IL-22", "setting": "[1]; T-cell line 165-D8G", "value": 405, "unit": "pg/mL"},
      {"measurement": "IFN-γ", "setting": "[1]; T-cell line 165-E9G", "value": 837, "unit": "pg/mL"},
      {"measurement": "IL-4", "setting": "[1]; T-cell line 165-E9G", "value": 6, "unit": "pg/mL"},
      {"measurement": "IL-5", "setting": "[1]; T-cell line 165-E9G", "value": 236, "unit": "pg/mL"},
      {"measurement": "IL-13", "setting": "[1]; T-cell line 165-E9G", "value": 1499, "unit": "pg/mL"},
      {"measurement": "IL-22", "setting": "[1]; T-cell line 165-E9G", "value": 245, "unit": "pg/mL"},
      {"measurement": "IFN-γ", "setting": "[1]; T-cell line 165-F8G", "value": 889, "unit": "pg/mL"},
      {"measurement": "IL-4", "setting": "[1]; T-cell line 165-F8G", "value": 5, "unit": "pg/mL"},
      {"measurement": "IL-5", "setting": "[1]; T-cell line 165-F8G", "value": 370, "unit": "pg/mL"},
      {"measurement": "IL-13", "setting": "[1]; T-cell line 165-F8G", "value": 1193, "unit": "pg/mL"},
      {"measurement": "IL-22", "setting": "[1]; T-cell line 165-F8G", "value": 197, "unit": "pg/mL"},
      {"measurement": "IFN-γ", "setting": "[1]; T-cell line 165-F10G", "value": 1108, "unit": "pg/mL"},
      {"measurement": "IL-4", "setting": "[1]; T-cell line 165-F10G", "value": 114, "unit": "pg/mL"},
      {"measurement": "IL-5", "setting": "[1]; T-cell line 165-F10G", "value": 2589, "unit": "pg/mL"},
      {"measurement": "IL-13", "setting": "[1]; T-cell line 165-F10G", "value": 10897, "unit": "pg/mL"},
      {"measurement": "IL-22", "setting": "[1]; T-cell line 165-F10G", "value": 680, "unit": "pg/mL"},
      {"measurement": "IFN-γ", "setting": "[1]; T-cell line 165-H11G", "value": 724, "unit": "pg/mL"},
      {"measurement": "IL-4", "setting": "[1]; T-cell line 165-H11G", "value": 7, "unit": "pg/mL"},
      {"measurement": "IL-5", "setting": "[1]; T-cell line 165-H11G", "value": 320, "unit": "pg/mL"},
      {"measurement": "IL-13", "setting": "[1]; T-cell line 165-H11G", "value": 1058, "unit": "pg/mL"},
      {"measurement": "IL-22", "setting": "[1]; T-cell line 165-H11G", "value": 201, "unit": "pg/mL"},
      {"measurement": "IFN-γ", "setting": "Donor 1 COP T-Cell Lines; [2]", "value": 181, "unit": "pg/mL"},
      {"measurement": "IL-2", "setting": "Donor 1 COP T-Cell Lines; [2]", "value": 30, "unit": "pg/mL"},
      {"measurement": "IL-5", "setting": "Donor 1 COP T-Cell Lines; [2]", "value": 0, "unit": "pg/mL"},
      {"measurement": "IL-10", "setting": "Donor 1 COP T-Cell Lines; [2]", "value": 11, "unit": "pg/mL"},
      {"measurement": "IL-13", "setting": "Donor 1 COP T-Cell Lines; [2]", "value": 154, "unit": "pg/mL"},
      {"measurement": "IL-22", "setting": "Donor 1 COP T-Cell Lines; [2]", "value": 39, "unit": "pg/mL"},
      {"measurement": "TNF-α", "setting": "Donor 1 COP T-Cell Lines; [2]", "value": 3, "unit": "pg/mL"},
      {"measurement": "IFN-γ", "setting": "Donor 1 COP T-Cell Lines; [3]", "value": 325, "unit": "pg/mL"},
      {"measurement": "IL-2", "setting": "Donor 1 COP T-Cell Lines; [3]", "value": 83, "unit": "pg/mL"},
      {"measurement": "IL-5", "setting": "Donor 1 COP T-Cell Lines; [3]", "value": 0, "unit": "pg/mL"},
      {"measurement": "IL-10", "setting": "Donor 1 COP T-Cell Lines; [3]", "value": 38, "unit": "pg/mL"},
      {"measurement": "IL-13", "setting": "Donor 1 COP T-Cell Lines; [3]", "value": 316, "unit": "pg/mL"},
      {"measurement": "IL-22", "setting": "Donor 1 COP T-Cell Lines; [3]", "value": 101, "unit": "pg/mL"},
      {"measurement": "TNF-α", "setting": "Donor 1 COP T-Cell Lines; [3]", "value": 72, "unit": "pg/mL"},
      {"measurement": "IFN-γ", "setting": "Donor 1 COP T-Cell Lines; [4]", "value": 664, "unit": "pg/mL"},
      {"measurement": "IL-2", "setting": "Donor 1 COP T-Cell Lines; [4]", "value": 0, "unit": "pg/mL"},
      {"measurement": "IL-5", "setting": "Donor 1 COP T-Cell Lines; [4]", "value": 0, "unit": "pg/mL"},
      {"measurement": "IL-10", "setting": "Donor 1 COP T-Cell Lines; [4]", "value": 55, "unit": "pg/mL"},
      {"measurement": "IL-13", "setting": "Donor 1 COP T-Cell Lines; [4]", "value": 942, "unit": "pg/mL"},
      {"measurement": "IL-22", "setting": "Donor 1 COP T-Cell Lines; [4]", "value": 0, "unit": "pg/mL"},
      {"measurement": "TNF-α", "setting": "Donor 1 COP T-Cell Lines; [4]", "value": 80, "unit": "pg/mL"},
      {"measurement": "IFN-γ", "setting": "Donor 1 COP T-Cell Lines; [5]", "value": 511.42, "unit": "pg/mL"},
      {"measurement": "IL-1β", "setting": "Donor 1 COP T-Cell Lines; [5]", "value": 94.12, "unit": "pg/mL"},
      {"measurement": "IL-2", "setting": "Donor 1 COP T-Cell Lines; [5]", "value": 185.35, "unit": "pg/mL"},
      {"measurement": "IL-5", "setting": "Donor 1 COP T-Cell Lines; [5]", "value": 67.83, "unit": "pg/mL"},
      {"measurement": "IL-8", "setting": "Donor 1 COP T-Cell Lines; [5]", "value": "<= 0 pg/mL"},
      {"measurement": "IL-10", "setting": "Donor 1 COP T-Cell Lines; [5]", "value": 77.88, "unit": "pg/mL"},
      {"measurement": "TNF-α", "setting": "Donor 1 COP T-Cell Lines; [5]", "value": 31.35, "unit": "pg/mL"},
      {"measurement": "TNF-β", "setting": "Donor 1 COP T-Cell Lines; [5]", "value": 29.94, "unit": "pg/mL"},
      {"measurement": "IFN-γ", "setting": "Donor 1 COP T-Cell Lines; [6]", "value": 3138, "unit": "pg/mL"},
      {"measurement": "IL-1β", "setting": "Donor 1 COP T-Cell Lines; [6]", "value": 20, "unit": "pg/mL"},
      {"measurement": "IL-2", "setting": "Donor 1 COP T-Cell Lines; [6]", "value": 152, "unit": "pg/mL"},
      {"measurement": "IL-4", "setting": "Donor 1 COP T-Cell Lines; [6]", "value": 99, "unit": "pg/mL"},
      {"measurement": "IL-5", "setting": "Donor 1 COP T-Cell Lines; [6]", "value": 336, "unit": "pg/mL"},
      {"measurement": "IL-10", "setting": "Donor 1 COP T-Cell Lines; [6]", "value": 234, "unit": "pg/mL"},
      {"measurement": "TNF-α", "setting": "Donor 1 COP T-Cell Lines; [6]", "value": 83, "unit": "pg/mL"},
      {"measurement": "TNF-β", "setting": "Donor 1 COP T-Cell Lines; [6]", "value": 102, "unit": "pg/mL"},
      {"measurement": "IFN-γ", "setting": "Donor 1 COP T-Cell Lines; [7]", "value": 1.88, "unit": "pg/mL"},
      {"measurement": "IL-2", "setting": "Donor 1 COP T-Cell Lines; [7]", "value": 0, "unit": "pg/mL"},
      {"measurement": "IL-5", "setting": "Donor 1 COP T-Cell Lines; [7]", "value": 0, "unit": "pg/mL"},
      {"measurement": "IL-10", "setting": "Donor 1 COP T-Cell Lines; [7]", "value": 0, "unit": "pg/mL"},
      {"measurement": "IL-13", "setting": "Donor 1 COP T-Cell Lines; [7]", "value": 183.09, "unit": "pg/mL"},
      {"measurement": "IL-22", "setting": "Donor 1 COP T-Cell Lines; [7]", "value": 0, "unit": "pg/mL"},
      {"measurement": "TNF-α", "setting": "Donor 1 COP T-Cell Lines; [7]", "value": 0, "unit": "pg/mL"}
    ]}
  ]
}
